Experimental data as given in patent US12187720B2, “Compounds for treatment of cancer” (ONCTERNAL THERAPEUTICS, INC., priority 2010, dated 2025).
Converted amounts (≈) assume the structure as drawn. Where a name gives a salt, the structure may show the parent alone. Read-outs that look alike come from different tables or passages of the source.

Columns and labels:
DU 145 = test: SRB cytotoxicity assay, DU 145 prostate cancer cells; type: cell-based; conditions: Homo sapiens, Table 13B, read-out: inhibitory effects DU145
From the text: (§1) Cells were stained with SRB solution.

PC-3 = test: SRB cytotoxicity assay, PC-3 prostate cancer cells; type: cell-based, human; conditions: Homo sapiens, PC-3; Table 13B; read-out: inhibitory effects PC3
From the text: as §1

LNCaP = test: SRB cytotoxicity assay, LNCaP prostate cancer cells; type: cell-based, human; conditions: Homo sapiens, LNCaP; Table 13B; read-out: inhibitory effects LNCaP
From the text: as §1

PPC-1 = test: SRB cytotoxicity assay, PPC-1 prostate cancer cells; type: cell-based, human; conditions: Homo sapiens, PPC-1; Table 13B; read-out: inhibitory effects PPC1
From the text: as §1

MDA-MB-435 = test: SRB cytotoxicity assay, MDA-MB-435 parental melanoma cells; type: cell-based; conditions: Homo sapiens, read-out: IC50 ± SEM MDA-MB-435
MDA-MB-435/LCCMDR1 = test: SRB cytotoxicity assay, multidrug-resistant MDA-MB-435/LCCMDR1 melanoma cells; type: cell-based, human; conditions: Homo sapiens, read-out: IC50 ± SEM MDA-MB-435/LCC6MDR1
MES-SA/DX5 = test: SRB growth inhibition assay, P-gp over-expressing MES-SA/DX5 cells; type: cell-based; conditions: ratio of IC50 MES-SA/DX5 to MES-SA
[1] = Metabolic stability in mouse liver microsomes; type: in vitro ADME; conditions: mouse, liver microsomes
[2] = Metabolic stability in rat liver microsomes; type: in vitro ADME; conditions: rat, liver microsomes, pH 7.4; phase I pathway; read-out: T ½ (min), rat liver microsomes
[3] = Metabolic stability in hamster liver microsomes; type: in vitro ADME; conditions: pH 7.4, phase I pathway, read-out: T ½ (min), hamster liver microsomes
[4] = Metabolic stability in rabbit liver microsomes; type: in vitro ADME; conditions: pH 7.4, phase I pathway, read-out: T ½ (min), rabbit liver microsomes
[5] = Metabolic stability in guinea pig liver microsomes; type: in vitro ADME; conditions: pH 7.4, phase I pathway, read-out: T ½ (min), guinea pig liver microsomes
[6] = Metabolic stability in dog liver microsomes; type: in vitro ADME; conditions: dog, pH 7.4
[7] = Metabolic stability in monkey liver microsomes; type: in vitro ADME; conditions: monkey, pH 7.4
in vivo = conditions: male, ICR, mouse, plasma, 5 mg/kg; for Vd / clearance: iv
[8] = Metabolic stability in human liver microsomes; conditions: human, liver microsomes, pH 7.4
[9] = system: melanoma and prostate cancer cell lines; test: SRB cytotoxicity, summary or average over melanoma and prostate cancer cell lines; type: cell-based; conditions: average of all seven cell lines
[10] = Water solubility, 48 h shaking in water, LC-MS; type: physicochemical
Protocol: Determination of water solubility. […] The suspension was centrifuged at 10,000 rpm for 10 min and filtered on 0.22 μm filter. Concentrations of each compound were measured by LC-MS, consisting of an HP S1100 HPLC instrument (Agilent, Foster ceity, CA) and a Bruker ESQUIRE MS detector with electrospray/ion trap instrument in positive ion mode (Bruker, Fremont, CA). For HPLC, a reverse phase Nova-pak C18 column (150 mm×3.9 mm, Waters, Milford, MA) was used. The mobile phase was composed of 20:80 v/v water/acetonitrile. […] The concentration of each compound was calculated by MS peak area according to the following calibration equation: y=1.3295x+114.24 (R^2=1.00). […] The amount (ng) in each injection was plotted again its relative mass peak area to generate the standard curve in FIG. 17.

PC-3/TxR tumors = conditions: for tumor growth inhibition (TGI): day 1 and 9
[11] = Brain penetration (brain and plasma concentrations) in nude mice; conditions: IP 10 mpk, mean ± SD
Bovine brain tubulin = test: In vitro tubulin polymerization assay (bovine brain tubulin); type: biochemical; conditions: 10 μM, 20 min incubation, versus vehicle
WM-164 melanoma cells = test: Microtubule imaging (immunofluorescence) in WM-164 melanoma cells; type: cell-based, human; conditions: 18 h
From the text: Primary antibody for tubulin and fluorescence-labeled secondary antibody were subsequently added to the cells. Cell nuclei were stained by DAPI. Whole Cell Stain Green was also applied to all cells. All images were acquired with an Olympus IX71 inverted fluorescence microscope (Olympus Corp., Tokyo, Japan) with overlays from separate images of tubulin (red), nuclei (blue), and whole cells (green).

B16-F1 = test: SRB cytotoxicity assay, B16-F1 mouse melanoma cells; type: cell-based; conditions: Table 12, 48 h; hydrochloride; read-out: IC50 ± SEM B16-F1 (converted)
WM-164 = test: SRB cytotoxicity assay, WM-164 human melanoma cells; type: cell-based; conditions: Table 12, 48 h; hydrochloride; read-out: IC50 ± SEM WM164 (converted)
[12] = pH 7.4, Table 20, read-out: Half life in Mouse liver microsome
[13] = pH 7.4, phase I pathway, read-out: T ½ (min), mouse liver microsomes
[14] = dog liver microsomes, Table 20, read-out: Half life in Dog liver microsome
[15] = liver microsomes, phase I pathway, read-out: T ½ (min), dog liver microsomes
[16] = liver microsomes, phase I pathway, read-out: T ½ (min), monkey liver microsomes
[17] = monkey liver microsomes, Table 20, read-out: Half life in Monkey liver microsome
[18] = PC-3/TxR xenograft, IV 10 mpk, day 1 and 9, end point day 19

O=C(c1ccccc1)c1nc(-c2ccccc2)c[nH]1 [70aa, phenyl-(4-phenyl-1H-imidazol-2-yl)methanone]
IC50 (DU 145): > 50 µM
IC50 (PC-3): > 50 µM
IC50 (LNCaP): > 50 µM
IC50 (PPC-1): > 50 µM
IC50 (MDA-MB-435; Table 14D): > 50 µM
IC50 (MDA-MB-435/LCCMDR1; Table 14D): > 50 µM

c1cc2ccc(-c3ccc4[nH]ccc4c3)cc2c(-c2ccc3[nH]ccc3c2)n1 [6b, 1,7-Bis-(1H-indol-5-yl)-isoquinoline]
Resistance factor (MES-SA/DX5): 1.4
half-life at 0.5 μM [1, 12]: 10 min
half-life at 0.5 μM [1, 13]: 10 min
half-life at 0.5 μM [2]: 9 min
half-life at 0.5 μM [3]: 11 min
half-life at 0.5 μM [4]: 16 min
half-life at 0.5 μM [5]: 15 min
half-life at 0.5 μM [6, 14]: 30 min
half-life at 0.5 μM [6, 15]: 30 min
half-life at 0.5 μM [7, 16]: 13 min
half-life at 0.5 μM [7, 17]: 13 min
AUC (in vivo; ip): 3630 ng·h/mL
Cmax (in vivo; ip): 1500 ng/mL
bioavailability (in vivo; ip): 60%
Vd (in vivo): 1.1 L/kg
clearance (in vivo): 14 mL/min/kg
AUC (in vivo; po): 117 ng·h/mL
Cmax (in vivo; po): 50 ng/mL
bioavailability (in vivo; po): 2.1%
half-life at 0.5 μM [8]: 40 min

COc1cc(C(=O)c2c[nH]c(-c3ccc(N(C)C)cc3)n2)cc(OC)c1OC [12ga, (2-(4-(dimethylamino)phenyl)-1H-imidazol-4-yl)(3,4,5-trimethoxyphenyl)methanone]
IC50 [9]: 0.131 µM
water solubility, times greater than thiazole counterpart [10]: about 200 times
solubility at 48 h ([10]; thermodynamic from solid, water, 48 h, RT): 13 µg/mL (≈ 34.1 µM)

COc1cc(-c2nccc3ccc(-c4ccc5[nH]ccc5c4)cc23)cc(OC)c1OC [6a]
Resistance factor (MES-SA/DX5): 1.5
half-life at 0.5 μM [1, 12]: 3.43 min
half-life at 0.5 μM [1, 13]: 3.4 min
half-life at 0.5 μM [2]: 12 min
half-life at 0.5 μM [3]: 6 min
half-life at 0.5 μM [4]: 17 min
half-life at 0.5 μM [5]: 15 min
half-life at 0.5 μM [6, 14]: 13 min
half-life at 0.5 μM [6, 15]: 13 min
half-life at 0.5 μM [7, 16]: 16 min
half-life at 0.5 μM [7, 17]: 16 min
AUC (in vivo; ip): 983 ng·h/mL
Cmax (in vivo; ip): 678 ng/mL
bioavailability (in vivo; ip): 60%
Vd (in vivo): 2.3 L/kg
clearance (in vivo): 51 mL/min/kg
AUC (in vivo; po): 83.3 ng·h/mL
Cmax (in vivo; po): 6.7 ng/mL
bioavailability (in vivo; po): 5%
half-life at 0.5 μM [8]: 32 min

CC(=O)O[C@@]12CO[C@@H]1C[C@H](O)[C@@]1(C)C(=O)[C@H](O)C3=C(C)[C@@H](OC(=O)[C@H](O)[C@@H](NC(=O)OC(C)(C)C)c4ccccc4)C[C@@](O)([C@@H](OC(=O)c4ccccc4)[C@H]21)C3(C)C [docetaxel, Docetaxel]
TGI (PC-3/TxR tumors; [18]): 14%
Tumor size End (PC-3/TxR tumors; [18]): 1774 ± 183 mm^3
TGI (PC-3/TxR tumors; PC-3/TxR xenograft, IV 20 mpk, day 1 and 9, end point day 19): 56%
tumor growth inhibition (TGI) (PC-3/TxR tumors; i.v. 10 mg/kg): 14%
tumor growth inhibition (TGI) (PC-3/TxR tumors; i.v. 20 mg/kg): 56%
Brain ([11]; 1 hr): 33 ± 14 ng/mL
Plasma ([11]; 1 hr): 768 ± 92 ng/mL
Brain ([11]; 4 hr): 20 ± 9 ng/mL
Plasma ([11]; 4 hr): 345 ± 94 ng/mL

CCc1[nH]c(Cc2cc(OC)c(OC)c(OC)c2)nc1-c1ccccc1 [102c, 5-ethyl-4-phenyl-2-(3,4,5-trimethoxybenzyl)-1H-imidazole]
IC50 (MDA-MB-435; Table 14C): > 50 µM
IC50 (MDA-MB-435/LCCMDR1; Table 14C): > 50 µM

COc1cc(C(=O)c2csc(-c3ccc(N(C)C)cc3)n2)cc(OC)c1OC [corresponding thiazole analog]
water solubility ([10]; water, 48 h, RT): 0.072 µg/mL (≈ 0.181 µM)

COc1cc(C(=O)c2cccc(-c3ccccc3)n2)cc(OC)c1OC [1c, (6-Phenylpyridin-2-yl)(3,4,5-trimethoxyphenyl)methanone]
inhibition of tubulin polymerization (Bovine brain tubulin): 64%

COc1ccc(S(=O)(=O)Nc2cccnc2Nc2ccc(O)cc2)cc1 [ABT-751, reference compound]
effect on microtubules (WM-164 melanoma cells): microtubule fragmentation

Cc1ccc(-c2nc(C(=O)c3ccc(F)cc3)c[nH]2)cc1 [12db-HCl, (4-fluorophenyl)(2-(p-tolyl)-1H-imidazol-4-yl)methanone hydrochloride]
IC50 (B16-F1): 0.297 µM
IC50 (WM-164): 0.112 µM

CCCc1[nH]c(Cc2cc(OC)c(OC)c(OC)c2)nc1-c1ccccc1 [102d, 4-phenyl-5-propyl-2-(3,4,5-trimethoxybenzyl)-1H-imidazole]
IC50 (MDA-MB-435; Table 14C): 11 µM
IC50 (MDA-MB-435/LCCMDR1; Table 14C): 15.9 µM

COc1cc(C(=O)c2nc(-c3cc(OC)c(OC)c(OC)c3)c[nH]2)cc(OC)c1OC [70q, 3,4,5-trimethoxyphenyl-(4-(3,4,5-trimethoxyphenyl)-1H-imidazol-2-yl)methanone]
IC50 (DU 145): > 50 µM
IC50 (PC-3): > 50 µM
IC50 (LNCaP): > 50 µM
IC50 (PPC-1): > 50 µM
IC50 (MDA-MB-435; Table 14D): 0.149 µM
IC50 (MDA-MB-435/LCCMDR1; Table 14D): 0.211 µM

Fc1ccc(-c2nccc3ccc(-c4ccc5[nH]ccc5c4)cc23)cc1 [6c, 1-(4-Fluoro-phenyl)-7-(1H-indol-5-yl)-isoquinoline]
half-life at 0.5 μM [1, 12]: 13 min
half-life at 0.5 μM [1, 13]: 13 min
half-life at 0.5 μM [2]: 14 min
half-life at 0.5 μM [3]: 20 min
half-life at 0.5 μM [4]: 16 min
half-life at 0.5 μM [5]: 8 min
half-life at 0.5 μM [6, 14]: 29 min
half-life at 0.5 μM [6, 15]: 29 min
half-life at 0.5 μM [7, 16]: 9 min
half-life at 0.5 μM [7, 17]: 9 min
AUC (in vivo; ip): 917 ng·h/mL
Cmax (in vivo; ip): 1100 ng/mL
bioavailability (in vivo; ip): 33%
Vd (in vivo): 1.8 L/kg
clearance (in vivo): 30 mL/min/kg
AUC (in vivo; po): 66.7 ng·h/mL
Cmax (in vivo; po): 50 ng/mL
bioavailability (in vivo; po): 2.7%
half-life at 0.5 μM [8]: 47 min
